Reference: ChEMBL document CHEMBL1201862, “PubChem BioAssay data set” (2004)
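Growth conditions: 96-well plates. Treatment: test compound, 48 hours, 5 concentrations. Analysis: linear interpolation between bracketing concentrations; unreached endpoints set to highest concentration. GI50: concentration for 50% inhibition of growth.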 Activity calls are given as the source filed them. Cut-off read from the data, not from the text of the source: active = GI50 up to about 1.1 µM and inactive = higher.

How the values were obtained:
Assay in all cases: inhibition of tumour cell growth, NCI panel, 48 h
[1] = tested on: OVCAR-5
[2] = tested on: TK-10
[3] = tested on: PC-3
[4] = tested on: MDA-N
[5] = tested on: Malme-3M
[6] = tested on: T47D
[7] = tested on: HT-29
[8] = tested on: SK-MEL-5
[9] = tested on: OVCAR-4
[10] = tested on: K562
[11] = tested on: NCI-H226
[12] = tested on: U-251
[13] = tested on: 786-0
[14] = tested on: HOP-92
[15] = tested on: SF-295
[16] = tested on: SF-268
[17] = tested on: ACHN
[18] = tested on: HOP-62
[19] = tested on: HL-60

Structure (SMILES) | GI50 [1] | GI50 [2] | GI50 [3] | GI50 [4] | GI50 [5] | GI50 [6] | GI50 [7] | GI50 [8] | GI50 [9] | GI50 [10] | GI50 [11] | GI50 [12] | GI50 [13] | GI50 [14] | GI50 [15] | GI50 [16] | GI50 [17] | GI50 [18] | GI50 [19]
CC1(C)CCC2(C(=O)OC3OC(CO)C(O)C(O)C3O)CCC3(CO)C(=CCC4C5(C)CC(O)C(O)C(C)(C(=O)OC6OC(CO)C(O)C(O)C6O)C5CCC43C)C2C1 (stereo not drawn) | > 100 µM (inactive) | > 100 µM (inactive) | > 100 µM (inactive) | > 100 µM (inactive) | > 100 µM (inactive) | > 100 µM (inactive) | > 100 µM (inactive) | > 100 µM (inactive) | > 100 µM (inactive) | > 100 µM (inactive) | > 100 µM (inactive) | > 100 µM (inactive) | > 100 µM (inactive) | > 100 µM (inactive) | > 100 µM (inactive) | > 100 µM (inactive) | > 100 µM (inactive) | > 100 µM (inactive) | 39 µM (inactive)
O=[N+]([O-])c1cccc2nc3ccccc3c(NCCCNc3c4ccccc4nc4cccc([N+](=O)[O-])c34)c12 | 0.0435 µM (active) | 0.02 µM (active) | 0.0343 µM (active) | 0.0123 µM (active) | 0.0378 µM (active) | 0.0537 µM (active) | < 0.01 µM (active) | 0.0163 µM (active) | 0.0635 µM (active) | < 0.01 µM (active) | 0.0697 µM (active) | 0.0171 µM (active) | 0.0146 µM (active) | < 0.01 µM (active) | 0.037 µM (active) | < 0.01 µM (active) | 0.0121 µM (active) | < 0.0156 µM (active) | 0.12 µM (active)
CC1(C)N=C(N)N=C(N)N1c1cccc(CSc2ccccc2)c1 | 52.1 µM (inactive) | 78.7 µM (inactive) | 3.73 µM (inactive) | 0.037 µM (active) | 8.89 µM (inactive) | 12.9 µM (inactive) | 0.0791 µM (active) | 0.212 µM (active) | 2.29 µM (inactive) | 0.774 µM (active) | 0.916 µM (active) | 0.045 µM (active) | 0.0929 µM (active) | 32 µM (inactive) | 1.1 µM (active) | 0.0363 µM (active) | 34.4 µM (inactive) | 6.4 µM (inactive) | < 0.01 µM (active)
OC1(c2ccccc2)CSC2=Nc3ccccc3C3CCN1N23 (stereo not drawn) | 11.1 µM (inactive) | 22.3 µM (inactive) | 15.3 µM (inactive) | 14.1 µM (inactive) | 22.4 µM (inactive) | 16.6 µM (inactive) | 18.1 µM (inactive) | 17.7 µM (inactive) | 23.1 µM (inactive) | 38.6 µM (inactive) | 38.1 µM (inactive) | 14.9 µM (inactive) | 18.7 µM (inactive) | 18.9 µM (inactive) | 6.47 µM (inactive) | 21.7 µM (inactive) | 19 µM (inactive) | 14.5 µM (inactive) | 30.1 µM (inactive)
CCn1cc(C(=O)O)c(=O)c2cc(F)c(N3CCN(CN4C(=O)/C(=N\NC(=O)c5ccncc5)c5cc(Cl)ccc54)CC3)cc21 | > 100 µM (inactive) | 24.7 µM (inactive) | 38.5 µM (inactive) | 50.6 µM (inactive) | 86.1 µM (inactive) | 29.4 µM (inactive) | 32.7 µM (inactive) | 42.2 µM (inactive) | 36.9 µM (inactive) | 18.7 µM (inactive) | > 100 µM (inactive) | 33 µM (inactive) | 38.6 µM (inactive) | 45.5 µM (inactive) | > 100 µM (inactive) | 61.4 µM (inactive) | 37.3 µM (inactive) | 22.9 µM (inactive) | 15.8 µM (inactive)
COC1(OC)CC(CO)(CNc2cc(Cl)nc(N)n2)C1 | > 100 µM (inactive) | > 100 µM (inactive) | > 100 µM (inactive) | > 100 µM (inactive) | > 100 µM (inactive) | 24.9 µM (inactive) | > 100 µM (inactive) | > 100 µM (inactive) | > 100 µM (inactive) | > 100 µM (inactive) | > 100 µM (inactive) | > 100 µM (inactive) | > 100 µM (inactive) | > 10 µM (inactive) | > 100 µM (inactive) | > 100 µM (inactive) | > 100 µM (inactive) | > 100 µM (inactive) | > 100 µM (inactive)
CCOC(=O)C1=CN(C(=O)c2ccccc2)CCC1Cc1ccccc1 (stereo not drawn) | 44.6 µM (inactive) | 22.9 µM (inactive) | 17.7 µM (inactive) | 19.5 µM (inactive) | 25.4 µM (inactive) | 12.5 µM (inactive) | 17 µM (inactive) | 15 µM (inactive) | 24.5 µM (inactive) | 17.6 µM (inactive) | 43.6 µM (inactive) | 21.1 µM (inactive) | 28.6 µM (inactive) | 14.7 µM (inactive) | 29.1 µM (inactive) | 32.9 µM (inactive) | 20.6 µM (inactive) | 30 µM (inactive) | 9.04 µM (inactive)
